Data on 46 molecules can be found in patent US11389456B2, “Compounds and methods for treating oxalate-related diseases” (OxaluRx, Inc., priority 2018, dated 2022).

For orientation: IC50 means the concentration at which inhibition is half-maximal.

Chain of recombinant full-length human hydroxyacid oxidase 1 (HAO1), the equivalent of hGOX (Q9UJM8 whole entry): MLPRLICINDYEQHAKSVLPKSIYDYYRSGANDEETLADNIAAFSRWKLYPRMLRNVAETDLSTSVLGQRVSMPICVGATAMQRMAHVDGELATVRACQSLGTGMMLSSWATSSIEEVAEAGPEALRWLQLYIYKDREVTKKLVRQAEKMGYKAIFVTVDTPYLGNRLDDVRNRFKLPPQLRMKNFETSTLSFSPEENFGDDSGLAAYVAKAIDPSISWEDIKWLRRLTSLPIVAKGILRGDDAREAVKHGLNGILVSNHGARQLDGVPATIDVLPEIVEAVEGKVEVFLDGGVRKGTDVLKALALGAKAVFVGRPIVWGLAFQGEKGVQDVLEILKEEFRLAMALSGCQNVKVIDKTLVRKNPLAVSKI

This assay has as its target recombinant full-length human hydroxyacid oxidase 1 (HAO1), the equivalent of hGOX (Homo sapiens (Human), UniProt Q9UJM8). In words: In-vitro human glycolate oxidase (hGOX) assay (Amplex red/HRP fluorescence). It is filed as biochemical. The following applies: 12.5 nM HAO1, 85 μM glycolate, 2.5% DMSO; read-out: IC50.
Experimental: Biological Activity Assay: In-Vitro Human Glycolate Oxidase (hGOX) Assay
The in-vitro glycolate oxidase assay was performed using recombinant full-length human hydroxyacid oxidase 1 (HAO1), the equivalent of hGOX. […] Purified HAO1 was dissolved in assay buffer consisting of 10 mM NaCl, 110 mM KCl, 2 mM MgCl2, 50 mM HEPES (pH 7.4) and 0.01% Triton™ X-100.
For the molecule `O=C(O)c1nn[nH]c1Oc1cccc(N2CCCCCC2)c1` [Example I-280, 5-(3-(Azepan-1-yl)phenoxy)-1H-1,2,3-triazole-4-carboxylic acid], the IC50 came out at 222 nM.

`O=C(O)c1[nH]nnc1Oc1ccc(F)c(F)c1` [Example I-307, 5-(3,4-Difluorophenoxy)-1H-1,2,3-triazole-4-carboxylic acid]: the IC50 worked out at 88 nM.

As to `O=C(O)c1nn[nH]c1Oc1cccc(N2CCOCC2)c1` [Example I-282, 5-(3-Morpholinophenoxy)-1H-1,2,3-triazole-4-carboxylic acid], the IC50 was 539 nM.

With `CCOC(=O)c1nn[nH]c1Sc1ccc(OC)cc1` [Example I-005, Ethyl 5-((4-Methoxyphenyl)thio)-1H-1,2,3-triazole-4-carboxylate], the IC50 was above 500000 nM.

For the molecule `C#Cc1ccc(Oc2[nH]nnc2C(=O)O)cc1` [Example I-297, 5-(4-Ethynylphenoxy)-1H-1,2,3-triazole-4-carboxylic acid], the IC50 came out at 4 nM.

In the case of `O=C(O)c1nn[nH]c1Oc1cccc(N2CCCC2)c1` [Example I-283, 5-(3-(Pyrrolidin-1-yl)phenoxy)-1H-1,2,3-triazole-4-carboxylic acid], the IC50 came out at 172 nM.

On to `O=C(O)c1nn[nH]c1Sc1ccc(Br)cc1` [Example I-007, 5-((4-Bromophenyl)thio)-1H-1,2,3-triazole-4-carboxylic acid], for which the concentration for half-maximal inhibition (IC50) stood at 70 nM.

As to `O=C(O)c1nn[nH]c1Oc1ccc(-c2cc(Cl)cc(Cl)c2)cc1` [Example I-300, 5-((3′,5′-Dichloro-[1,1′-biphenyl]-4-yl)oxy)-1H-1,2,3-triazole-4-carboxylic acid], the IC50 worked out at 33 nM.

On to `CCc1cccc(Oc2[nH]nnc2C(=O)O)c1` [Example I-295, 5-(3-Ethylphenoxy)-1H-1,2,3-triazole-4-carboxylic acid], for which the IC50 turned out to be 79 nM.

For `COc1ccc(Oc2[nH]nnc2C(=O)O)cc1` [Example I-035, 5-(4-Methoxyphenoxy)-1H-1,2,3-triazole-4-carboxylic acid], the IC50 was found to be 260 nM.

In the case of `Cc1ccccc1Sc1[nH]nnc1C(=O)O` [Example I-010, 5-(o-Tolylthio)-1H-1,2,3-triazole-4-carboxylic acid], the IC50 came to 360 nM.

For the molecule `CCOC(=O)c1nn[nH]c1Sc1ccccc1F` [Example I-014, Ethyl 5-((2-fluorophenyl)thio)-1H-1,2,3-triazole-4-carboxylate], the IC50 worked out at 430000 nM.

As to `O=C(O)c1nn[nH]c1Oc1cccc(-c2ccc(OC(F)(F)F)c(F)c2)c1` [Example I-311, 5-((3′-Fluoro-4′-(trifluoromethoxy)-[1,1′-biphenyl]-3-yl)oxy)-1H-1,2,3-triazole-4-carboxylic acid], the half-inhibitory concentration (IC50) stood at 27 nM.

Turning to `O=C(O)c1[nH]nnc1Sc1ccc(Cl)c(Cl)c1` [Example I-025, 5-((3,4-Dichlorophenyl)thio)-1H-1,2,3-triazole-4-carboxylic acid], the IC50 was found to be 43 nM.

Regarding `Cc1ccc(Sc2[nH]nnc2C(=O)O)c(C)c1` [Example I-009, 5-((2,4-Dimethylphenyl)thio)-1H-1,2,3-triazole-4-carboxylic acid], the IC50 is 230 nM.

As for `Cc1ccc(Nc2[nH]nnc2C(=O)O)cc1` [Example I-292, 5-(p-Tolylamino)-1H-1,2,3-triazole-4-carboxylic acid], the half-maximal inhibitory concentration (IC50) is 3760 nM.

For the molecule `O=C(O)c1nn[nH]c1Oc1cccc(C2CC2)c1` [Example I-293, 5-(3-Cyclopropylphenoxy)-1H-1,2,3-triazole-4-carboxylic acid], the IC50 is 74 nM.

Consider `CCOC(=O)c1nn[nH]c1Sc1ccc(Br)cc1` [Example I-008, Ethyl 5-((4-bromophenyl)thio)-1H-1,2,3-triazole-4-carboxylate], for which the IC50 was above 500000 nM.

In the case of `COc1cc(OC)cc(-c2cccc(Oc3[nH]nnc3C(=O)O)c2)c1` [Example I-303, 5-((3′,5′-Dimethoxy-[1,1′-biphenyl]-3-yl)oxy)-1H-1,2,3-triazole-4-carboxylic acid], the half-inhibitory concentration (IC50) is 169 nM.

Take `O=C(O)c1nn[nH]c1Oc1ccccc1` [Example I-057, 5-Phenoxy-1H-1,2,3-triazole-4-carboxylic acid]: the IC50 was determined as 360 nM.

With `COc1ccc(Nc2[nH]nnc2C(=O)O)cc1` [Example I-290, 5-((4-Methoxyphenyl)amino)-1H-1,2,3-triazole-4-carboxylic acid], the IC50 worked out at 6530 nM.

For the molecule `CCc1ccc(Oc2[nH]nnc2C(=O)O)cc1` [Example I-298, 5-(4-Ethylphenoxy)-1H-1,2,3-triazole-4-carboxylic acid], the IC50 turned out to be 34 nM.

Regarding `O=C(O)c1nn[nH]c1Sc1ccccc1F` [Example I-013, 5-((2-Fluorophenyl)thio)-1H-1,2,3-triazole-4-carboxylic acid], the IC50 came to 200 nM.

Consider `O=C(O)c1nn[nH]c1Oc1ccc(F)c(Cl)c1` [Example I-309, 5-(3-Chloro-4-fluorophenoxy)-1H-1,2,3-triazole-4-carboxylic acid], for which the IC50 came to 27 nM.

`CCOC(=O)c1nn[nH]c1Nc1ccc(C)cc1` [Example I-291, ethyl 5-(p-tolylamino)-1H-1,2,3-triazole-4-carboxylate]: the IC50 is above 500000 nM.

In the case of `CC(C)c1cccc(Oc2[nH]nnc2C(=O)O)c1` [Example I-278, 5-(3-Isopropylphenoxy)-1H-1,2,3-triazole-4-carboxylic acid], the IC50 is 230 nM.

As to `COc1ccc(Sc2[nH]nnc2C(=O)O)cc1` [Example I-004, 5-((4-Methoxyphenyl)thio)-1H-1,2,3-triazole-4-carboxylic acid], the IC50 came to 140 nM.

On to `CC(C)c1ccc(Oc2[nH]nnc2C(=O)O)cc1` [Example I-274, 5-(4-Isopropylphenoxy)-1H-1,2,3-triazole-4-carboxylic acid], for which the half-maximal inhibitory concentration (IC50) was 112 nM.

Regarding `Cc1ccc(Oc2[nH]nnc2C(=O)O)cc1C` [Example I-039, 5-(3,4-Dimethylphenoxy)-1H-1,2,3-triazole-4-carboxylic acid], the half-maximal inhibitory concentration (IC50) turned out to be 56 nM.

Turning to `O=C(O)c1nn[nH]c1Oc1ccc(-c2ccc(OC(F)(F)F)c(F)c2)cc1` [Example I-310, 5-((3′-Fluoro-4′-(trifluoromethoxy)-[1,1′-biphenyl]-4-yl)oxy)-1H-1,2,3-triazole-4-carboxylic acid], the IC50 was 5 nM.

Consider `O=C(O)c1nn[nH]c1OCc1ccc(Br)cc1` [Example I-085, 5-((4-Bromobenzyl)oxy)-1H-1,2,3-triazole-4-carboxylic acid], for which the IC50 was above 10000 nM.

Turning to `O=C(O)c1nn[nH]c1Sc1ccc(C(F)(F)F)cc1` [Example I-016, 5-((4-(Trifluoromethyl)phenyl)thio)-1H-1,2,3-triazole-4-carboxylic acid], the IC50 came out at 820 nM.

In the case of `O=C(O)c1nn[nH]c1Sc1cccc(F)c1` [Example I-015, 5-((3-Fluorophenyl)thio)-1H-1,2,3-triazole-4-carboxylic acid], the IC50 is 130 nM.

Consider `CCOC(=O)c1nn[nH]c1Nc1ccc(OC)cc1` [Example I-289, Ethyl 5-((4-methoxyphenyl)amino)-1H-1,2,3-triazole-4-carboxylate], for which the half-maximal inhibitory concentration (IC50) is above 500000 nM.

Consider `CC(C)Cc1cccc(Oc2[nH]nnc2C(=O)O)c1` [Example I-296, 5-(3-Isobutylphenoxy)-1H-1,2,3-triazole-4-carboxylic acid], for which the IC50 is 76 nM.

For the molecule `O=C(O)c1nn[nH]c1Sc1ccccc1Cl` [Example I-011, 5-((2-Chlorophenyl)thio)-1H-1,2,3-triazole-4-carboxylic acid], the IC50 came out at 270 nM.

On to `O=C(O)c1nn[nH]c1Oc1cccc(N2CCCCC2)c1` [Example I-281, 5-(3-(Piperidin-1-yl)phenoxy)-1H-1,2,3-triazole-4-carboxylic acid], for which the half-maximal inhibitory concentration (IC50) was 370 nM.

With `COc1cc(OC)cc(-c2ccc(Oc3[nH]nnc3C(=O)O)cc2)c1` [Example I-301, 5-((3′,5′-Dimethoxy-[1,1′-biphenyl]-4-yl)oxy)-1H-1,2,3-triazole-4-carboxylic acid], the IC50 worked out at 1080 nM.

`C=Cc1cccc(Oc2[nH]nnc2C(=O)O)c1` [Example I-284, 5-(3-Vinylphenoxy)-1H-1,2,3-triazole-4-carboxylic acid]: the IC50 was 89 nM.

Consider `O=C(O)c1nn[nH]c1Oc1cccc(-c2ccc3c(c2)OCO3)c1` [Example I-305, 5-(3-(Benzo[d][1,3]dioxol-5-yl)phenoxy)-1H-1,2,3-triazole-4-carboxylic acid], for which the half-inhibitory concentration (IC50) was found to be 2 nM.

Regarding `Cc1ccc(Sc2[nH]nnc2C(=O)O)cc1` [Example I-003, 5-(p-Tolylthio)-1H-1,2,3-triazole-4-carboxylic acid], the IC50 is 160 nM.

Turning to `COc1ccccc1Sc1[nH]nnc1C(=O)O` [Example I-006, 5-((2-Methoxyphenyl)thio)-1H-1,2,3-triazole-4-carboxylic acid], the IC50 was 2310 nM.

In the case of `O=C(O)c1nn[nH]c1Oc1ccc(Cl)c(F)c1` [Example I-308, 5-(4-Chloro-3-fluorophenoxy)-1H-1,2,3-triazole-4-carboxylic acid], the IC50 is 34 nM.

With `O=C(O)c1nn[nH]c1Sc1nc2ccccc2s1` [Example I-032, 5-(Benzo[d]thiazol-2-ylthio)-1H-1,2,3-triazole-4-carboxylic acid], the IC50 is 4860 nM.

For the molecule `CCOC(=O)c1nn[nH]c1Sc1ccccc1Cl` [Example I-012, Ethyl 5-((2-chlorophenyl)thio)-1H-1,2,3-triazole-4-carboxylate], the IC50 turned out to be 251000 nM.

On to `Cc1cc(Oc2[nH]nnc2C(=O)O)ccc1F` [Example I-306, 5-(4-Fluoro-3-methylphenoxy)-1H-1,2,3-triazole-4-carboxylic acid], for which the 50% inhibitory concentration (IC50) was 61 nM.
